Measured values from patent publication US8148391B2 (Cephalon, Inc., priority 2006, dated 2012).
pIC50: −log10 of the molar value. Where two headings read alike, the source gives them in different places. Values belong to the molecule of their own block, whether it stands above or below them.

How the values were obtained:
[1] = target: T1, baculovirus-expressed ALK (Homo sapiens, UniProt Q9UM73); test: ALK Kinase Assay (ELISA-type, time-resolved fluorescence); format: biochemical
T1 construct: host or cells: baculovirus expression system
T1 sequence (Q9UM73 19-1620): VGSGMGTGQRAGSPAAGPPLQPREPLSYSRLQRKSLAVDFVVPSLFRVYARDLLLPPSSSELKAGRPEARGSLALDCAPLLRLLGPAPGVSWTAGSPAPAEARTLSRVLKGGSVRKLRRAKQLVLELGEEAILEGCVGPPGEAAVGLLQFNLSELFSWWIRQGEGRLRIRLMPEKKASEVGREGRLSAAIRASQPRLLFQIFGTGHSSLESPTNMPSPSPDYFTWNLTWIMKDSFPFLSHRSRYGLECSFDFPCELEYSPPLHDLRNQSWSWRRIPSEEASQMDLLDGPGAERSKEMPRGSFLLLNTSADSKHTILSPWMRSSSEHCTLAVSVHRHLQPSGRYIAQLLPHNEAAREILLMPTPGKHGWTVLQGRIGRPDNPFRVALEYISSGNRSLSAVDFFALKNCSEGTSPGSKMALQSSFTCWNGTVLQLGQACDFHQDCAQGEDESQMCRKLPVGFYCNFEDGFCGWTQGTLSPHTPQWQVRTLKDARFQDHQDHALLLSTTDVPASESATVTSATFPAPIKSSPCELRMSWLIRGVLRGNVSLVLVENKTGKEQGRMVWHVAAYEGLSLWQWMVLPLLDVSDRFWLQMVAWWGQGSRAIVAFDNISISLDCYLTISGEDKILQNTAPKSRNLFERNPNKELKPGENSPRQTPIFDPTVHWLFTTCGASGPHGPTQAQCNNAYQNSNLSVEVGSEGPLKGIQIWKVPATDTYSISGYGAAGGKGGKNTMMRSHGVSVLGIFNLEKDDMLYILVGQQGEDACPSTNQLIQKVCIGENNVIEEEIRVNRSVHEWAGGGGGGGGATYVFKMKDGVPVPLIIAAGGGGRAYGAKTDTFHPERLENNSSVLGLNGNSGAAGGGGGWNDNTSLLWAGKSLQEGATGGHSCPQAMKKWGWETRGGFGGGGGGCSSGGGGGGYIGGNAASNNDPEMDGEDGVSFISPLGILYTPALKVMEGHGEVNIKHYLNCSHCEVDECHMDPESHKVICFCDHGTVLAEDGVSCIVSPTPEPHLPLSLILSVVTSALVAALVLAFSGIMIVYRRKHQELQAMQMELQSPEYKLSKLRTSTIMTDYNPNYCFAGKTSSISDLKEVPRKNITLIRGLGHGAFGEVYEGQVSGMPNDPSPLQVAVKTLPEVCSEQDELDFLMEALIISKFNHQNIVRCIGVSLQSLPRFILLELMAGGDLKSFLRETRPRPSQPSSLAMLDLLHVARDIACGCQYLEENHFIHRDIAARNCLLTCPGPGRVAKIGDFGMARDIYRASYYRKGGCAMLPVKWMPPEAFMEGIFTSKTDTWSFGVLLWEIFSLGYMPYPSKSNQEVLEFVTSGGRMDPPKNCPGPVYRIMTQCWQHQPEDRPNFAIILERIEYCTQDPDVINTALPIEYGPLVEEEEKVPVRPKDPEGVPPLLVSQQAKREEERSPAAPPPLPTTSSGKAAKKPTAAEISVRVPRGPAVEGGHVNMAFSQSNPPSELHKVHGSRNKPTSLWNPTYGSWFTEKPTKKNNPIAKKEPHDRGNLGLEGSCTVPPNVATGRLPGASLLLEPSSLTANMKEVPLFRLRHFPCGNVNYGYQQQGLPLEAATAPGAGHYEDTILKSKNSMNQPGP
How it was run: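 Wells were coated with phospholipase C-γ at 10 μg/mL in Tris-buffered saline. Adding 30 ng/ml enzyme started the reaction, which ran at 37° C for 15 minutes before Eu-N1 PT66 antibody detection. Percent inhibition versus log10 concentration gave IC50 by variable-slope fit.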

[2] = target: T2, c-Met (cytoplasmic domain) (Homo sapiens, UniProt P08581); test: c-Met Kinase Assay (same methods as for ALK, with modifications); format: biochemical
T2 construct: 10 ng/mL c-Met (cytoplasmic domain, Invitrogen Corporation #PV3143); purchased Invitrogen Corporation PV3143
T2 sequence (P08581 956-1390 limits assumed): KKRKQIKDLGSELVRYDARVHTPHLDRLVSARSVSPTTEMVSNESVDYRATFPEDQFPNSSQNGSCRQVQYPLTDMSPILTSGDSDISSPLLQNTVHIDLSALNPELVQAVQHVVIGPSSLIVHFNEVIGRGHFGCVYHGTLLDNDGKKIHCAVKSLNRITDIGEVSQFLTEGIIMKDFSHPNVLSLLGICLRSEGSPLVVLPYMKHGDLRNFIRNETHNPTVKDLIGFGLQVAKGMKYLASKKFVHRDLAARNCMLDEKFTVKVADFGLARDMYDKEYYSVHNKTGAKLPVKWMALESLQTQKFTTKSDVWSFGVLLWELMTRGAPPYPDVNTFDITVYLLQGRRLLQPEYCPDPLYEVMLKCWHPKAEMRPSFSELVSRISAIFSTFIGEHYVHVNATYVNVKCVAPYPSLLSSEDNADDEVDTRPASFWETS
How it was run: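 IC50 values were fitted by variable-slope sigmoidal regression of percent inhibition against log compound concentration. Phosphorylation was read with Eu-N1 PT66 antibody after a 15 min, 37 °C reaction. The reaction was initiated with 10 ng/mL c-Met cytoplasmic domain on wells coated with 10 μg/mL PLC-γ in TBS.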

[3] = ALK kinase inhibition, 1 μM ATP, read-out: ALK Activity
[4] = c-Met kinase inhibition, 1 μM ATP, read-out: cMet Activity
[5] = ALK kinase inhibition, 1 μM ATP (Km level), read-out: ALK Activity
[6] = c-Met kinase inhibition, 1 μM ATP (Km level), read-out: cMet Activity
[7] = 1 μM ATP (Km level), 30 ng/ml ALK, 37° C., 15 minutes, read-out: ALK Activity (ALK kinase inhibition, IC50 class)
[8] = 1 μM ATP (Km level), 10 ng/mL c-Met, read-out: cMet Activity (c-Met kinase inhibition, IC50 class)
[9] = 1 μM ATP (Km level), read-out: ALK Activity (ALK Kinase Inhibition, IC50)
[10] = 1 μM ATP (Km level), read-out: cMet Activity (c-Met Kinase Inhibition, IC50)

pIC50 [1, 3]: > 7.00 | pIC50 [2, 4]: 6.00 to 7.00
Structure (SMILES): CC1(C)CCC(=O)Nc2cc(Nc3ncc(Cl)c(Nc4ccccc4OCC#N)n3)ccc21 [Example 1578, {2-[5-Chloro-2-(5,5-dimethyl-2-oxo-2,3,4,5-tetrahydro-1H-benzo[b]azepin-8-ylamino)-pyrimidin-4-ylamino]-phenoxy}-acetonitrile]

pIC50 [1, 5]: > 7.00 | pIC50 [2, 6]: > 7.00
Structure (SMILES): CNC(=O)c1ccccc1Nc1nc(Nc2ccc3c(c2)CCN(CCF)CC3)ncc1Cl [Example 38, 2-{5-Chloro-2-[3-(2-fluoro-ethyl)-2,3,4,5-tetrahydro-1H-benzo[d]azepin-7-ylamino]-pyrimidin-4-ylamino}-N-methyl-benzamide]

pIC50 [1, 3]: 6.00 to 7.00 | pIC50 [2, 4]: > 7.00
Structure (SMILES): C#CCNC(=O)c1cccc(F)c1Nc1nc(Nc2ccc3c(c2)N(CC)C(=O)C(NC(=O)CN(C)C)CC3)ncc1Cl (stereo not drawn) [Example 1497, 2-{5-Chloro-2-[3-(2-dimethylamino-acetylamino)-1-ethyl-2-oxo-2,3,4,5-tetrahydro-1H-benzo[b]azepin-8-ylamino]-pyrimidin-4-ylamino}-3-fluoro-N-prop-2-ynyl-benzamide]

pIC50 [1, 7]: > 7.00 | pIC50 [2, 8]: 6.00 to 7.00
Structure (SMILES): COCCN1CCc2ccc(Nc3ncc(Cl)c(Nc4ccccc4C(=O)OC)n3)cc2CC1 [Example 1408, 2-{5-Chloro-2-[3-(2-methoxy-ethyl)-2,3,4,5-tetrahydro-1H-benzo[d]azepin-7-ylamino]-pyrimidin-4-ylamino}-benzoic acid methyl ester]

pIC50 [1, 7]: > 7.00 | pIC50 [2, 8]: 5.00 to 6.00
Structure (SMILES): COc1cc2c(cc1Nc1ncc(Cl)c(Nc3ccccc3S(=O)(=O)N(C)C)n1)CCN(C(=O)CN1CCOCC1)CC2 [Example 1192, 2-{5-Chloro-2-[8-methoxy-3-(2-morpholin-4-yl-acetyl)-2,3,4,5-tetrahydro-1H-benzo[d]azepin-7-ylamino]-pyrimidin-4-ylamino}-N,N-dimethyl-benzenesulfonamide]

pIC50 [1, 3]: 6.00 to 7.00 | pIC50 [2, 4]: > 7.00
Structure (SMILES): CNC(=O)c1cccc(F)c1Nc1nc(Nc2ccc3c(c2)NC(=O)CN(CCC(F)(F)F)C3)ncc1Cl [Example 1861, 2-{5-Chloro-2-[2-oxo-4-(3,3,3-trifluoro-propyl)-2,3,4,5-tetrahydro-1H-benzo[e][1,4]diazepin-8-ylamino]-pyrimidin-4-ylamino}-3-fluoro-N-methyl-benzamide]

pIC50 [1, 3]: > 7.00 | pIC50 [2, 4]: > 7.00
Structure (SMILES): CNC(=O)c1cc(-c2cnn(C)c2)cc(F)c1Nc1nc(Nc2ccc3c(c2)NC(=O)CCC3(C)C)ncc1Cl [Example 1624, 2-[5-Chloro-2-(5,5-dimethyl-2-oxo-2,3,4,5-tetrahydro-1H-benzo[b]azepin-8-ylamino)-pyrimidin-4-ylamino]-3-fluoro-N-methyl-5-(1-methyl-1H-pyrazol-4-yl)-benzamide]

pIC50 [1, 3]: 5.00 to 6.00 | pIC50 [2, 4]: > 7.00
Structure (SMILES): CNC(=O)c1cccc(C)c1Nc1nc(Nc2ccc3c(c2)CCOC(=O)N3C)ncc1Cl [Example 1744, 2-[5-Chloro-2-(5-methyl-6-oxo-5,6,8,9-tetrahydro-7-oxa-5-aza-benzocyclohepten-2-ylamino)-pyrimidin-4-ylamino]-3,N-dimethyl-benzamide]

pIC50 [1, 9]: > 7.00 | pIC50 [2, 10]: < 5.00
Structure (SMILES): COc1cc2c(cc1Nc1ncc(Cl)c(Nc3ccccc3S(=O)(=O)N3CCOCC3)n1)CCN(CC(=O)N(C)C)CC2 [Example 836, 2-(7-{5-Chloro-4-[2-(morpholine-4-sulfonyl)-phenylamino]-pyrimidin-2-ylamino}-8-methoxy-1,2,4,5-tetrahydro-benzo[d]azepin-3-yl)-N,N-dimethyl-acetamide]

pIC50 [1, 7]: > 7.00 | pIC50 [2, 8]: > 7.00
Structure (SMILES): CNC(=O)c1ccccc1Nc1nc(Nc2ccc3c(c2)CNC(=O)CCN3C(=O)C(F)(F)F)ncc1Cl [Example 1301, 2-{5-Chloro-2-[4-oxo-1-(2,2,2-trifluoro-acetyl)-1,2,3,4,5,6-hexahydro-benzo[b][1,5]diazocin-8-ylamino]-pyrimidin-4-ylamino}-N-methyl-benzamide]

pIC50 [1, 5]: > 7.00 | pIC50 [2, 6]: 5.00 to 6.00
Structure (SMILES): COCCN1CCc2ccc(Nc3ncc(Cl)c(N[C@@H]4CCCC[C@H]4NS(C)(=O)=O)n3)cc2CC1 [Example 36, N-((1R,2R)-2-{5-Chloro-2-[3-(2-methoxy-ethyl)-2,3,4,5-tetrahydro-1H-benzo[d]azepin-7-ylamino]-pyrimidin-4-ylamino}-cyclohexyl)-methanesulfonamide]

pIC50 [1, 9]: > 7.00 | pIC50 [2, 10]: < 5.00
Structure (SMILES): CCN1CC(=O)N(CC)c2cc(Nc3ncc(Cl)c(Nc4ccc(OC)cc4-n4cccn4)n3)c(OC)cc2C1 [Example 737, 8-[5-Chloro-4-(4-methoxy-2-pyrazol-1-yl-phenylamino)-pyrimidin-2-ylamino]-1,4-diethyl-7-methoxy-1,3,4,5-tetrahydro-benzo[e][1,4]diazepin-2-one]

pIC50 [1, 5]: > 7.00 | pIC50 [2, 6]: 6.00 to 7.00
Structure (SMILES): COCCN1CCc2ccc(Nc3ncc(Cl)c(NC4C5C=CC(C5)C4C(N)=O)n3)cc2CC1 (stereo not drawn) [Example 310, (2-exo,3-exo)-3-{5-Chloro-2-[3-(2-methoxy-ethyl)-2,3,4,5-tetrahydro-1H-benzo[d]azepin-7-ylamino]-pyrimidin-4-ylamino}-bicyclo[2.2.1]hept-5-ene-2-carboxylic acid amide]

pIC50 [1, 9]: > 7.00 | pIC50 [2, 10]: < 5.00
Structure (SMILES): COc1ccc(Nc2nc(Nc3cc4c(cc3OC)CCN(CC(=O)N(C)C)CC4)ncc2Cl)c(N2CCOCC2)c1 [Example 829, 2-{7-[5-Chloro-4-(4-methoxy-2-morpholin-4-yl-phenylamino)-pyrimidin-2-ylamino]-8-methoxy-1,2,4,5-tetrahydro-benzo[d]azepin-3-yl}-N,N-dimethyl-acetamide]

pIC50 [1, 9]: 6.00 to 7.00 | pIC50 [2, 10]: < 5.00
Structure (SMILES): COc1cc2c(cc1Nc1ncc(Cl)c(Nc3ccccc3-n3cccn3)n1)CCN(CC(C)(F)F)CC2 [Example 825, 5-Chloro-N*2*-[3-(2,2-difluoro-propyl)-8-methoxy-2,3,4,5-tetrahydro-1H-benzo[d]azepin-7-yl]-N*4*-(2-pyrazol-1-yl-phenyl)-pyrimidine-2,4-diamine]

pIC50 [1, 7]: > 7.00 | pIC50 [2, 8]: > 7.00
Structure (SMILES): CC1(C)CCC(=O)Nc2cc(Nc3ncc(Cl)c(Nc4ccccc4OCCC#N)n3)ccc21 [Example 1238, 3-{2-[5-Chloro-2-(5,5-dimethyl-2-oxo-2,3,4,5-tetrahydro-1H-1-benzazepin-8-ylamino)-pyrimidin-4-ylamino]-phenoxy}-propionitrile]

pIC50 [1, 3]: 6.00 to 7.00 | pIC50 [2, 4]: > 7.00
Structure (SMILES): CNC(=O)c1ccccc1Nc1nc(Nc2ccc3c(c2)NC(=O)CNC3)ncc1Cl [Example 1858, 2-[5-Chloro-2-(2-oxo-2,3,4,5-tetrahydro-1H-benzo[e][1,4]diazepin-8-ylamino)-pyrimidin-4-ylamino]-N-methyl-benzamide]

pIC50 [1, 7]: 6.00 to 7.00 | pIC50 [2, 8]: 5.00 to 6.00
Structure (SMILES): COCCN1CCc2ccc(Nc3ncc(Cl)c(Nc4ccc5[nH]c(C(F)(F)F)nc5c4)n3)cc2CC1 [Example 1015, 5-Chloro-N*2*-[3-(2-methoxy-ethyl)-2,3,4,5-tetrahydro-1H-benzo[d]azepin-7-yl]-N*4*-(2-trifluoromethyl-1H-benzoimidazol-5-yl)-pyrimidine-2,4-diamine]

pIC50 [1, 9]: > 7.00 | pIC50 [2, 10]: 6.00 to 7.00
Structure (SMILES): NC(=O)[C@@H]1[C@H]2CC[C@H](C2)[C@@H]1Nc1nc(Nc2ccc3c(c2)CCC(NCC(F)(F)F)CC3)ncc1Cl (stereo partly drawn) [Example 654, (1S,2R,3S,4R)-3-{5-Chloro-2-[7-(2,2,2-trifluoro-ethylamino)-6,7,8,9-tetrahydro-5H-benzocyclohepten-2-ylamino]-pyrimidin-4-ylamino}-bicyclo[2.2.1]heptane-2-carboxylic acid amide]

pIC50 [1, 5]: > 7.00 | pIC50 [2, 6]: 6.00 to 7.00
Structure (SMILES): CCN1CCc2ccc(Nc3ncc(Cl)c(Nc4ccccc4-c4nccn4C)n3)cc2CC1 [Example 216, 5-Chloro-N*2*-(3-ethyl-2,3,4,5-tetrahydro-1H-benzo[d]azepin-7-yl)-N*4*-[2-(1-methyl-1H-imidazol-2-yl)-phenyl]-pyrimidine-2,4-diamine]

pIC50 [1, 3]: 6.00 to 7.00 | pIC50 [2, 4]: 6.00 to 7.00
Structure (SMILES): Cc1cnc(-c2sccc2Nc2nc(Nc3ccc4c(c3)CCOC(=O)N4C)ncc2Cl)o1 [Example 1790, 2-{5-Chloro-4-[2-(5-methyl-oxazol-2-yl)-thiophen-3-ylamino]-pyrimidin-2-ylamino}-5-methyl-8,9-dihydro-5H-7-oxa-5-aza-benzocyclohepten-6-one]

Structure (SMILES): CNC(=O)c1cccc(Cl)c1Nc1nc(Nc2ccc3c(c2)C2CCC(C3)N2)ncc1Cl (stereo not drawn) [Example 90, 2-[2-(12-Aza-tricyclo[7.2.1.0*2,7*]dodeca-2(7),3,5-trien-4-ylamino)-5-chloro-pyrimidin-4-ylamino]-3-chloro-N-methyl-benzamide]
pIC50 [1, 5]: 6.00 to 7.00 | pIC50 [2, 6]: > 7.00

pIC50 [1, 5]: 6.00 to 7.00 | pIC50 [2, 6]: 5.00 to 6.00
Structure (SMILES): COCCN1CCc2ccc(Nc3ncc(Cl)c(NC(C)CNS(C)(=O)=O)n3)cc2CC1 (stereo not drawn) [Example 303, N-(2-{5-Chloro-2-[3-(2-methoxy-ethyl)-2,3,4,5-tetrahydro-1H-benzo[d]azepin-7-ylamino]-pyrimidin-4-ylamino}-propyl)-methanesulfonamide]

pIC50 [1, 7]: 6.00 to 7.00 | pIC50 [2, 8]: > 7.00
Structure (SMILES): CNC(=O)c1cccc(F)c1Nc1nc(Nc2ccc3c(c2)NC(=O)C(N2CCOCC2)CC3(C)C)ncc1Cl (stereo not drawn) [Example 1288, 2-[5-Chloro-2-(5,5-dimethyl-3-morpholin-4-yl-2-oxo-2,3,4,5-tetrahydro-1H-1-benzazepin-8-ylamino)-pyrimidin-4-ylamino]-3-fluoro-N-methyl-benzamide]
